Results: US9101579B2, “Inhibition of drug resistant cancer cells” (Celgene Corporation, priority 2012, dated 2015)
Entries after “also recorded” stand apart in the source; their conditions may differ.

How the values were obtained:
M14 melanoma cell line = experiment: Drug treatment and CellTiter-Glo cell viability assay, emergence of drug-tolerant expanded persisters (DTEP) in M14 cells; format: cell-based; details: for emergence of DTEPs, continuous co-treatment: 2 μM AZ628 + 0.5 nM (sub-lethal) romidepsin every 3 days, continuous schedule 45 days, FIG. 1
Description: (§1) The M14 melanoma and HCC827 non-small cell lung cancer cell (NSCLC) cell lines were purchased from American Type Culture Collection (ATCC; Manassas, Va.). Cells were cultured at 37° C./5% CO2 in RPMI-1640 medium (ATCC) supplemented with 10% FBS. AZ628 and Erlotnib were purchased from Selleck Chemicals (Houston, Tex.) and reconstituted in DMSO to 20 mM. Romidepsin (Celgene Corporation) was reconstituted in DMSO to 10 μM. All drugs were stored at −30° C.
(§2) Romidepsin was used at a final concentration of 1 nM for HCC827 cells and 0.5 nM for M14 cells. Conditioned media were replaced with fresh drug-containing media every three days (“continuous Q3D” schedule). The Q3D schedule was evaluated continuously over a period of 27-45 days, and also for shorter durations ranging from 3-21 days.
(§3) Cell viability was monitored periodically over 27-45 days using CellTiter-Glo (CTG). On select days, an equal volume (1 mL) of CTG was added to each well of the 24-well plates. The plates, wrapped with aluminum foil, were incubated on a shaking platform for 10 minutes. A 200 μL aliquot from each well was transferred to a new well of 96-well plates. The SpectraMax L (Molecular Devices; Sunnyvale, Calif.) was used to measure luminescence.

[1] = test system: HCC827 non-small cell lung cancer cell line; experiment: Drug treatment and CellTiter-Glo cell viability assay, emergence of drug-tolerant expanded persisters (DTEP) in HCC827 cells; format: cell-based
Description: as §1, §2, §3
Conditioned medium was replaced with fresh drug-containing medium every three days. Starting on day 12, the drug-containing medium also included 1 nM romidepsin. Cell viability was monitored on days 0, 15, and 37 using CellTiter-Glo (CTG).

In the case of Cc1ccc(NC(=O)c2cccc(C(C)(C)C#N)c2)cc1Nc1ccc2ncn(C)c(=O)c2c1 [AZ628], the “outgrowth of DTPs into DTEPs under continued AZ628 alone” value (M14 melanoma cell line; M14 cells, continued treatment with AZ628 2 μM every 3 days) is reported as “yielding a large population of AZ628-resistant cells” and the “cell death on treatment with AZ628 alone” value (M14 melanoma cell line; M14 cells, high concentration (100×IC50; 2 μM) AZ628, after 9 days) is reported as “Massive cell death”.
For C#Cc1cccc(Nc2ncnc3cc(OCCOC)c(OCCOC)cc23)c1 [Erlotinib], the “cell death on treatment with Erlotinib alone” value ([1]; NSCLC (HCC827) cells, high concentration (100×IC50; 2 μM) Erlotinib, after 9 days) was “Massive cell death”.
In the case of C/C=C1\NC(=O)[C@H]2CSSCC/C=C/[C@H](CC(=O)N[C@H](C(C)C)C(=O)N2)OC(=O)[C@H](C(C)C)NC1=O [romidepsin, (1S,4S,7Z,10S,16E,21R)-7-ethylidene-4,21-bis(1-methylethyl)-2-oxa-12,13-dithia-5,8,20,23-tetrazabicyclo[8.7.6]tricos-16-ene-3,6,9,19,22-pentone], the “emergence of DTEP, reduced romidepsin schedule” value (M14 melanoma cell line; M14 cells treated with 2 μM AZ628, romidepsin 0.5 nM every 3 days for 2 weeks, FIGS. 3A and 3B) is reported as “prevented the emergence of DTEP”, the “number of romidepsin doses sufficient to prevent emergence of DTEP” value (M14 melanoma cell line; M14 cells treated with 2 μM AZ628, romidepsin 0.5 nM every 3 days, FIGS. 3A and 3B) is reported as 5 doses and the “emergence of DTEPs, continuous co-treatment” value (M14 melanoma cell line; M14 cells) is reported as “prevented the DTEP emergence”. The “emergence of DTEPs, continuous co-treatment” value (M14 melanoma cell line; M14 cells, listed as romidespin) was “prevented the emergence of DTEPs”, the “DTEP growth, short (6-hour) romidepsin exposure (wash-out)” value (M14 melanoma cell line; M14 cells, 2 μM AZ628, higher romidepsin concentration (0.5, 2 or 10 nM tested), 6-hour exposure on continuous schedule, FIG. 4A) was “sufficient to prevent DTEP growth” and the “Erlotinib-resistant cells after delayed addition of romidepsin” value ([1]; HCC827 cells pretreated with 2 μM Erlotinib every 3 days, 1 nM romidepsin added from day 12, viability on days 0, 15, 37, FIG. 5) was “eliminated Erlotinib-resistant HCC827 cells”. For the same compound, the “emergence of DTEPs, reduced romidepsin schedule” value ([1]; HCC827 cells treated with 2 μM Erlotinib, romidepsin 1.0 nM every 3 days for 2 weeks, FIG. 3C) was “prevented the emergence of DTEPs”, the “number of romidepsin doses sufficient to prevent emergence of DTEP” value ([1]; HCC827 cells treated with 2 μM Erlotinib, romidepsin 1.0 nM every 3 days, FIG. 3C) was 4 doses and the “emergence of DTEPs, continuous co-treatment” value ([1]; HCC827 cells, 2 μM Erlotinib + 1.0 nM (sub-lethal) romidepsin every 3 days, continuous schedule 27 days, FIG. 2) was “prevented the emergence of DTEPs; also recorded: prevented the DTEP emergence”. The “DTEP growth, short (6-hour) romidepsin exposure (wash-out)” value ([1]; HCC827 cells, 2 μM Erlotinib, higher romidepsin concentration (1, 5 and 20 nM tested), 6-hour exposure on continuous schedule, FIG. 4B) was “sufficient to prevent DTEP growth”.
